In paper PMC9369231, “Bile Acid–Drug Interaction via Organic Anion-Transporting Polypeptide 4C1 Is a Potential Mechanism of Altered Pharmacokinetics of Renally Excreted Drugs” (International Journal of Molecular Sciences, 2022) one finds Ki, IC50 and inhibition data, which are given here for four compounds.

Common to all, as to type: cell-based
Assay [1] has as its target T1, OATP4C1 (organic anion-transporting polypeptide 4C1) (Homo sapiens, UniProt Q6ZQN7).
T1 construct: gene SLCO4C1; stably expressed in MDCKII cells (G418), butyrate-induced
T1 sequence (Q6ZQN7 1-724): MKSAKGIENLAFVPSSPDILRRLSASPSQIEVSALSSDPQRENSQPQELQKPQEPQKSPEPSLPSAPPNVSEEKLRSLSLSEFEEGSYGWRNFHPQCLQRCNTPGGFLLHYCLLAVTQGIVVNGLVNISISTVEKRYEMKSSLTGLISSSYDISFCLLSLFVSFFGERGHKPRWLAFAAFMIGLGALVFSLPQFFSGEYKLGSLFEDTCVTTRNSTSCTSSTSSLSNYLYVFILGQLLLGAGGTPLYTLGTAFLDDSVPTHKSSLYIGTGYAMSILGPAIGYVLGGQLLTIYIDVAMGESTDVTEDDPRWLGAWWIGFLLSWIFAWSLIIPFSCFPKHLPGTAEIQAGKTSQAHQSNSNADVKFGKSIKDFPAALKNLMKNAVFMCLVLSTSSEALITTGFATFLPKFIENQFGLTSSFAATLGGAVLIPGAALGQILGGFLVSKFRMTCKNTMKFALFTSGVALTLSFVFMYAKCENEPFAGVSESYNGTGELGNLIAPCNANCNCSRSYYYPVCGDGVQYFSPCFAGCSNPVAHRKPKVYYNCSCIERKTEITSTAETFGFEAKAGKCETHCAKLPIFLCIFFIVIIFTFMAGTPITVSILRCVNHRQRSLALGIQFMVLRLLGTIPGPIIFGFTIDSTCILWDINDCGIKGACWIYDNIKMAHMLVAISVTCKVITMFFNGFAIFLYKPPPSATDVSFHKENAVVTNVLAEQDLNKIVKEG
Briefly: inhibition of T3 uptake in OATP4C1/MDCKII cells; Ki calculated from IC50 as IC50/([…]+[S]/Km).

Assay [2] deals with T1, OATP4C1 (organic anion-transporting polypeptide 4C1). As to the kind of experiment: inhibition of T3 uptake in OATP4C1/MDCKII cells, LC/MS/MS, mock subtracted. The text has this:
inhibition of T3 uptake in OATP4C1/MDCKII cells, LC/MS/MS, mock subtracted on OATP4C1 (organic anion-transporting polypeptide 4C1)

Assay [3] shares this target. The assay is described as above. The conditions noted are these: MDCK-II.

The term Ki denotes a dissociation constant, usually derived from enzyme kinetics or from competition with a known ligand. Usually IC50 stands for the concentration needed to halve the response being measured. One may read the inhibition as the change of the read-out against control, counted positive when it falls. Low readings indicate a weak effect, high ones a strong effect.

Structures are written as SMILES.

On to `C[C@H](CCC(=O)NCC(=O)O)[C@H]1CC[C@H]2[C@@H]3CC[C@@H]4C[C@H](O)CC[C@]4(C)[C@H]3CC[C@]12C` [GLCA], for which the Ki in assay [1] was 8.46 ± 0.406 µM. This compound also gave an IC50 in assay [2] of 9.9 ± 0.475 µM. For `C[C@H](CCC(=O)O)[C@H]1CC[C@H]2[C@@H]3CC[C@@H]4C[C@H](O)CC[C@]4(C)[C@H]3CC[C@]12C` [LCA], the Ki in assay [1] is 5.23 ± 1.03 µM. This compound had an IC50 in assay [2] of 6.12 ± 1.21 µM.

In turn, `C[C@H](CCC(=O)NCCS(=O)(=O)O)[C@H]1CC[C@H]2[C@@H]3CC[C@@H]4C[C@H](OS(=O)(=O)O)CC[C@]4(C)[C@H]3C[C@H](O)[C@]12C` [TDCA-3S] gave an inhibition at 50 µM in assay [3] of 49.1%. Take `C[C@H](CCC(=O)NCCS(=O)(=O)O)[C@H]1CC[C@H]2[C@@H]3CC[C@@H]4C[C@H](O)CC[C@]4(C)[C@H]3CC[C@]12C` [TLCA]: in assay [1], the Ki was 10.5 ± 0.762 µM. In assay [2], the midpoint of inhibition, the IC50, lay at 12.3 ± 0.891 µM.
